Activity calls are given as the source filed them.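 The calls were made as follows: active = in confirmatory dose-response testing, peak deubiquitinase inhibition of 30% or more; inactive = the rest.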
target: Ubiquitin carboxyl-terminal hydrolase 28 (Homo sapiens) (UniProt Q96RU2); test: Ubiquitin-specific peptidase 28 DUB inhibitors, biochemical concentration-dependence assay, validation of primary screening hits (AID 1645866); settings: purified USP28, ubiquitin-rhodamine fluorescence, 30 min
Sequence (Q96RU2 whole entry, looked up): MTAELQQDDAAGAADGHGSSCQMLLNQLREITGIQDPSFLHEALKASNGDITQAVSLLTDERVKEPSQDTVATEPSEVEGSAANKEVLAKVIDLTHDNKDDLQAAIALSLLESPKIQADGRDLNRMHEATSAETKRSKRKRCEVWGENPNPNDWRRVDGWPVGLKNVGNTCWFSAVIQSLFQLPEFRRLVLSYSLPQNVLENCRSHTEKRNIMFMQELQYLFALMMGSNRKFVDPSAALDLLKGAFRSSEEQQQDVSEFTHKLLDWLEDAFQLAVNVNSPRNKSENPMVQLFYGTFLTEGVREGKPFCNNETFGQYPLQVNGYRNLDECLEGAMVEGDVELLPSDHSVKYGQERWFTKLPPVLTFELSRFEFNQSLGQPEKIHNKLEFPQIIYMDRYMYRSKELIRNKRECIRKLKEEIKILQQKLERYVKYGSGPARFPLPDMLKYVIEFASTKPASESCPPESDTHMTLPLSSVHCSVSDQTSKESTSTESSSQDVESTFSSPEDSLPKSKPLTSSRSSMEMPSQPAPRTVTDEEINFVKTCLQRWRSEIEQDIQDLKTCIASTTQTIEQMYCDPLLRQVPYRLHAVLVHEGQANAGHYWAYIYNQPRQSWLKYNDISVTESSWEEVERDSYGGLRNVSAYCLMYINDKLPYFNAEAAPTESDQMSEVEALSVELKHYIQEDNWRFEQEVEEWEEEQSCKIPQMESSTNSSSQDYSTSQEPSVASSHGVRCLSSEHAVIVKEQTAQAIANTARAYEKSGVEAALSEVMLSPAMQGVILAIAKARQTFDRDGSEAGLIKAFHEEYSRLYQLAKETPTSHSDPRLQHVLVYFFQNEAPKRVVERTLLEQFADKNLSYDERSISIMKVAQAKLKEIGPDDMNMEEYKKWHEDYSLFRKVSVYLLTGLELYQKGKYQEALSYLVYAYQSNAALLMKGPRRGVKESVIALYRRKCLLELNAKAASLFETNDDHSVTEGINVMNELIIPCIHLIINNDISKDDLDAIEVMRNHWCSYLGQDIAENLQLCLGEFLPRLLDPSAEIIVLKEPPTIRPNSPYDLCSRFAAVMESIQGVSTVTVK

Structure (SMILES) | IC50
Cc1ccc(C)c(Nc2cc(C)nc3nc(-c4ccco4)nn23)c1 | > 50 µM (inactive)
Cc1cccc(O)c1-c1nc2c(-c3nc4c(C(=O)O)cccc4o3)cccc2o1 | > 50 µM (inactive)
NC(=O)Cn1c(=O)n(Cc2ccc(C(=O)NC3CCCC3)cc2)c(=O)c2ccccc21 | > 50 µM (inactive)
CCOc1ccccc1NC(=O)Cn1c(=O)n(CCCC(=O)NCc2ccc(C)cc2)c(=O)c2sccc21 | 1.98 µM
CC(=O)N1CCc2cc(S(=O)(=O)NC(Cc3ccccc3)C(=O)Nc3cccc(Cl)c3C)ccc21 (configuration not stated) | 9.5 µM
Cc1nc(C(=O)Nc2cccc(Cl)c2Cl)nn1-c1cc(Cl)cc(Cl)c1 | 0.163 µM
C/C1=C\CCC(C)C(O)CC(O)C(C)C(O)CCC(C)C(O)CC2(O)OC(CC(OC(=O)CC(=O)O)CC(O)CC(O)CC(O)C(C)C(O)/C=C/C(C)C(C(C)CCCCCCCCN=C(N)N)OC1=O)CC(O)C2O (configuration not stated) | 4.77 µM
CSc1nc(SCC(N)=O)c2c3c(sc2n1)COC(C)(C)C3 | 27.3 µM
Cc1ccc2c(C)nc(Nc3ncc4c(n3)CC(c3ccco3)CC4=O)nc2c1 (configuration not stated) | < 0.05 µM
Cc1ccc(C(=O)Nc2cc3c4c(c2)CC(=O)N4CCC3)cc1C | 6.26 µM
COC(=O)c1ccc2c(=O)n(CCCCCC(=O)NCc3cccc(Cl)c3)c(=O)[nH]c2c1 | 2.05 µM
COc1cc(Cl)c(C)cc1NC(=O)Cn1c(=O)n(CC(=O)NCc2ccco2)c(=O)c2ccccc21 | 3.4 µM
CN(C)c1cccc(C(=O)Nc2cc(-c3cccnc3)no2)c1 | 13.5 µM
COc1cc2c(c3oc4cccc(O)c4c(=O)c13)C1C=COC1O2 (configuration not stated) | 36.7 µM
Nc1c(C(=O)NCCc2ccccc2)nnn1-c1ccc(F)cc1 | 42.5 µM
O=C(CC1C(=O)Nc2nc(-c3ccccc3)nn21)Nc1cccc2ccccc12 (configuration not stated) | 15 µM
CCc1nc(SCC(=O)Nc2ccccc2Cl)c2oc3ccccc3c2n1 | 0.37 µM
Oc1sc(C=Nc2cc(Cl)ccc2Cl)c2ccccc12 | 2.98 µM
CCC1=C(c2ccc(C)cc2)S(=O)(=O)NC1=NCC(=O)NCc1ccccc1F | 33.2 µM
COc1ccc(C2C(C(=O)C(C)(C)C)N3c4ccccc4C=CC3C23C(=O)c2ccccc2C3=O)c(OC)c1 (configuration not stated) | > 50 µM (inactive)
COC(=O)c1sc2ccccc2c1NC(=O)c1ccc(Br)s1 | 15.8 µM
O=C(OC1CSc2nc3ccccc3n2C1)c1ccc([N+](=O)[O-])o1 (configuration not stated) | 33.2 µM
CCCc1nc2sc3c(N(CC)CC)ncnc3c2c2c1CCC2 | 3.77 µM
O=C(NC1CC1)c1ccnn1-c1ccc2ccc(-c3ccncc3)cn12 | > 50 µM (inactive)

Structure (SMILES) | IC50
Nc1ncnc(SCc2ccc(Cl)cc2)n1 | 19.7 µM
CC(=O)c1ccc(NC(=O)C2CCN(c3cncnc3N3CCCC3)CC2)cc1 | 0.674 µM
Cc1ccc(NC(=O)CCC(=O)Nc2ccc3nc(N4CCCCC4)cc(C)c3c2)c(Br)c1 | 22.7 µM
CCCC(=O)N1CCC2(CC1)Nc1ccccc1NC2=O | > 50 µM (inactive)
CC(=O)Nc1ccc(NC(=O)c2cc(-c3cc(C)cc(C)c3O)n[nH]2)cc1 | 10.8 µM
CCn1c(=O)c(=O)[nH]c2cc(C(=O)Nc3cccc(-c4csc(C)n4)c3)ccc21 | 1.99 µM
CC1(C)C[C@@H](O)[C@]2(C)CC[C@]3(C)C(=CCC4[C@@]5(C)CC[C@H](O)[C@](C)(CO)[C@@H]5CC[C@]43C)[C@@H]2C1 (some centres not stated) | > 50 µM (inactive)
CSc1ncccc1C(=O)NC1(O)C(=O)c2ccccc2C1=O | 29 µM
CC(=O)c1ccccc1NC(=O)COc1ccc(-c2ccc(C#N)cc2)cc1 | 4.72 µM
CN1CCN(c2ccc3nc(-c4ccccc4)c(-c4ccccc4)nc3c2)CC1 | > 50 µM (inactive)
O=C(c1cc(-c2ccncc2)n[nH]1)N1CCC(C(=O)N2CC=C(c3ccccc3)CC2)CC1 | 24.3 µM
COc1ccc(NC(=O)CNC(=O)c2ccc3nc(-n4cccc4)sc3c2)cc1 | 3.11 µM
CC(C)C(=O)Nc1ccc(N2CCN(Cc3ccc(F)cc3)C2=O)nc1 | 19.3 µM
Cc1ccc(-c2ncc(C(=O)NCc3cccc(C)c3)c(-c3ccncc3)n2)cc1 | > 50 µM (inactive)
COc1cccc(N2C(=O)N(CC(=O)NCc3ccc(Cl)cc3)c3ccccc3S2(=O)=O)c1 | 19.1 µM
O=C(Cn1c(=O)n(Cc2ccc(F)cc2)c(=O)c2sccc21)Nc1cccc(Cl)c1 | 11.4 µM
Cc1ccc(C(=O)Nc2nc3n(n2)C(c2ccccc2)CC(=O)N3)cc1 (configuration not stated) | 19.4 µM
CCCNC(=O)c1ccn(-c2ccc3ccc(-c4cnn(C)c4)cn23)n1 | > 50 µM (inactive)
O=S1(=O)CCN(Cc2ccccc2)c2c(F)nc(N3CCCCC3)c(F)c21 | > 50 µM (inactive)
Cc1sc(-c2cccnc2)nc1OC(=O)c1ccc(Cl)c(Cl)c1 | > 50 µM (inactive)
CCCN1C=NS(=O)(=O)c2cc(C(=O)Nc3ccc(OC)c(Cl)c3)ccc21 | 35.2 µM
CC(C)c1ccc(NC(=O)COC(=O)c2ccc3[nH]c4c(c3c2)CCCC4)cc1 | 31.4 µM
Cc1sc(NC(=O)CN2CCc3ccccc3C2)nc1-c1ccc2c(c1)CCN2C(=O)C1CCCCC1 | > 50 µM (inactive)
